Assay results reported in ChEMBL document CHEMBL5376003, “Structure-Activity Relationship of FL118 Platform Position 7 Versus Position 9-Derived Compounds and Their Mechanism of Action and Antitumor Activity” (J Med Chem, 2023).
The source made the active and inactive calls. The rule behind the calls is not given here.

Tests used:
HCT-116 [1] = assay: Activation of innate immune response in human HCT-116 cells assessed as upregulation of IRF3 gene expression at 10 to 500 nM incubated for 6 to 48 hrs by RNA analysis; format: functional, cell-based; conditions: dose 10-500 nM, time 6-48 hrs
HCT-116 [2] = assay: Induction of apoptosis in human HCT-116 cells assessed as upregulation of ATF3 mRNA expression at 10 to 500 nM incubated for 6 to 48 hrs by RNA analysis; format: functional, cell-based; conditions: dose 10-500 nM, time 6-48 hrs
HCT-116 [3] = assay: Induction of apoptosis in human HCT-116 cells assessed as downregulation of BIRC5 mRNA expression at 10 to 500 nM incubated for 6 to 48 hrs by RNA analysis; format: functional, cell-based; conditions: dose 10-500 nM, time 6-48 hrs
HCT-116 [4] = assay: Induction of apoptosis in human HCT-116 cells assessed as downregulation of AK2 gene expression at 10 to 500 nM incubated for 6 to 48 hrs by RNA analysis; format: functional, cell-based; conditions: dose 10-500 nM, time 6-48 hrs
PDX27454 [5] = assay: Antitumor activity against human PDX27454 cells xenografted in SCID mouse model assessed as reduction in tumor volume at 2 mg/kg,po administrated once per week for 3 weeks; format: functional, organism-based
PDX27454 [6] = assay: Antitumor activity against human PDX27454 cells xenografted in SCID mouse model assessed as reduction in tumor volume at 8 mg/kg,po administrated once per week for 3 weeks; format: functional, organism-based
HCT-116 [7] = assay: Induction of apoptosis in human HCT-116 cells assessed as downregulation of AMPD3 gene expression at 10 to 500 nM incubated for 6 to 48 hrs by RNA analysis; format: functional, cell-based; conditions: dose 10-500 nM, time 6-48 hrs
HCT-116 [8] = assay: Induction of apoptosis in human HCT-116 cells assessed as upregulation of USP11 mRNA expression at 10 to 500 nM incubated for 6 to 48 hrs by RNA analysis; format: functional, cell-based; conditions: dose 10-500 nM, time 6-48 hrs
HCT-116 [9] = assay: Induction of apoptosis in human HCT-116 cells assessed as modulation of TOP2B mRNA expression at 10 to 500 nM incubated for 6 to 48 hrs by RNA analysis; format: functional, cell-based; conditions: dose 10-500 nM, time 6-48 hrs
[10] = biological target: T1, DNA topoisomerase 1 (Homo sapiens) (UniProt P11387); assay: Inhibition of topoisomerase 1 (unknown origin) assessed as relaxation of supercoiled plasmid pBR322 DNA at 25 to 100 uM incubated for 30 mins by ethidium bromide staining based agarose gel electrophoresis; conditions: dose 25-100 µM
T1 sequence (whole entry): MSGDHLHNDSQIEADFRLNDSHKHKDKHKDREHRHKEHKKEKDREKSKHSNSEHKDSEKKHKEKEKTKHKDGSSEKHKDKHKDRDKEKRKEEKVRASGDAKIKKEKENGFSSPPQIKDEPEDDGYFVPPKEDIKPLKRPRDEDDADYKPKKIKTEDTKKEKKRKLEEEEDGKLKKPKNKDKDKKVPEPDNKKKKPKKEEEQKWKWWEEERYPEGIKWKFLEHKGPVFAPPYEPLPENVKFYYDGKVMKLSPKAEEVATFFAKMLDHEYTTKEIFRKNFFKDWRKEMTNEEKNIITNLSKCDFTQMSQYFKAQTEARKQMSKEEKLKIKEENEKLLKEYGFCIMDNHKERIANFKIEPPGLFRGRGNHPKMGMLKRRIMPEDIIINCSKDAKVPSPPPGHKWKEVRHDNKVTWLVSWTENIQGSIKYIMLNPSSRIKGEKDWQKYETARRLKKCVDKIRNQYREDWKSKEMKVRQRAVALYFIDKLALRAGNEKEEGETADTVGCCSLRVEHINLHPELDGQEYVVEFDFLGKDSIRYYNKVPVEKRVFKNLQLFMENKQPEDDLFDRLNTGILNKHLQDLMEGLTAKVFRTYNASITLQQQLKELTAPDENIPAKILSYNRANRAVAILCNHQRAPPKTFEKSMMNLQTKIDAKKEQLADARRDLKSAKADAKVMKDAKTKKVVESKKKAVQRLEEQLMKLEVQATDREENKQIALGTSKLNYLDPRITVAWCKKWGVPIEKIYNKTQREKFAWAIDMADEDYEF

MCF7 = assay: Growth inhibition of human MCF7 cells incubated for 48 hrs by MTT reagent based ELISA reader analysis; format: functional, cell-based; conditions: MCF7, 48 h
HCT-116 [11] = assay: Induction of apoptosis in human HCT-116 cells assessed as downregulation of DCTPP1 gene expression at 10 to 500 nM incubated for 6 to 48 hrs by RNA analysis; format: functional, cell-based; conditions: dose 10-500 nM, time 6-48 hrs
HCT-116 [12] = assay: Induction of apoptosis in human HCT-116 cells assessed as downregulation of TPR gene expression at 10 to 500 nM incubated for 6 to 48 hrs by RNA analysis; format: functional, cell-based; conditions: dose 10-500 nM, time 6-48 hrs
HCT-116 [13] = assay: Induction of apoptosis in human HCT-116 cells assessed as modulation of DDX18 mRNA expression at 10 to 500 nM incubated for 6 to 48 hrs by RNA analysis; format: functional, cell-based; conditions: dose 10-500 nM, time 6-48 hrs
HCT-116 [14] = assay: Induction of apoptosis in human HCT-116 cells assessed as downregulation of NUP43 gene expression at 10 to 500 nM incubated for 6 to 48 hrs by RNA analysis; format: functional, cell-based; conditions: dose 10-500 nM, time 6-48 hrs
HCT-116 [15] = assay: Induction of apoptosis in human HCT-116 cells assessed as upregulation of GADD45A mRNA expression at 10 to 500 nM incubated for 6 to 48 hrs by RNA analysis; format: functional, cell-based; conditions: dose 10-500 nM, time 6-48 hrs
HCT-116 [16] = assay: Induction of apoptosis in human HCT-116 cells assessed as modulation of DDX21 mRNA expression at 10 to 500 nM incubated for 6 to 48 hrs by RNA analysis; format: functional, cell-based; conditions: dose 10-500 nM, time 6-48 hrs
HCT-116 [17] = assay: Induction of apoptosis in human HCT-116 cells assessed as downregulation of DTYMK gene expression at 10 to 500 nM incubated for 6 to 48 hrs by RNA analysis; format: functional, cell-based; conditions: dose 10-500 nM, time 6-48 hrs
HCT-116 [18] = assay: Induction of apoptosis in human HCT-116 cells assessed as upregulation of ADA mRNA expression at 10 to 500 nM incubated for 6 to 48 hrs by RNA analysis; format: functional, cell-based; conditions: dose 10-500 nM, time 6-48 hrs
HCT-116 [19] = assay: Induction of apoptosis in human HCT-116 cells assessed as downregulation of ADPGK gene expression at 10 to 500 nM incubated for 6 to 48 hrs by RNA analysis; format: functional, cell-based; conditions: dose 10-500 nM, time 6-48 hrs
HCT-116 [20] = assay: Activation of innate immune response in human HCT-116 cells assessed as upregulation of IL-1A gene expression at 10 to 500 nM incubated for 6 to 48 hrs by RNA analysis; format: functional, cell-based; conditions: dose 10-500 nM, time 6-48 hrs
HCT-116 [21] = assay: Induction of apoptosis in human HCT-116 cells assessed as downregulation of NUDT15 gene expression at 10 to 500 nM incubated for 6 to 48 hrs by RNA analysis; format: functional, cell-based; conditions: dose 10-500 nM, time 6-48 hrs
HCT-116 [22] = assay: Induction of apoptosis in human HCT-116 cells assessed as downregulation of NUP58 gene expression at 10 to 500 nM incubated for 6 to 48 hrs by RNA analysis; format: functional, cell-based; conditions: dose 10-500 nM, time 6-48 hrs
HCT-116 [23] = assay: Induction of apoptosis in human HCT-116 cells assessed as modulation of DDX47 mRNA expression at 10 to 500 nM incubated for 6 to 48 hrs by RNA analysis; format: functional, cell-based; conditions: dose 10-500 nM, time 6-48 hrs
HCT-116 [24] = assay: Induction of apoptosis in human HCT-116 cells assessed as downregulation of PRKACB gene expression at 10 to 500 nM incubated for 6 to 48 hrs by RNA analysis; format: functional, cell-based; conditions: dose 10-500 nM, time 6-48 hrs

SMILES	Activity (HCT-116 [1])	Activity (HCT-116 [2])	Activity (HCT-116 [3])	Activity (HCT-116 [4])	Activity (PDX27454 [5])	Activity (PDX27454 [6])	Activity (HCT-116 [7])	Activity (HCT-116 [8])	Activity (HCT-116 [9])	Topoisomerase 1 inhibition [10]	IC50 (MCF7)	Activity (HCT-116 [11])	Activity (HCT-116 [12])	Activity (HCT-116 [13])	Activity (HCT-116 [14])	Activity (HCT-116 [15])	Activity (HCT-116 [16])	Activity (HCT-116 [17])	Activity (HCT-116 [18])	Activity (HCT-116 [19])	also measured
CC[C@@]1(O)C(=O)OCc2c1cc1n(c2=O)Cc2c-1nc1cc3c(cc1c2-c1cc(OC)cc(OC)c1)OCO3	Active	Active	Active	Active	Active	Active	Active	Active	Active	Active	< 6.4 nM	Active	Active	Active	Active	Active	Active	Active			
CC[C@@]1(O)C(=O)OCc2c1cc1n(c2=O)Cc2c-1nc1cc3c(cc1c2-c1ccc(OC)cc1)OCO3	Active	Active	Active	Active	Active	Active	Active	Active	Active	Active	45.8 nM	Active	Active	Active	Active	Active	Active	Active	Active	Active	Activity (HCT-116 [20]): Active; Activity (HCT-116 [21]): Active; Activity (HCT-116 [22]): Active; Activity (HCT-116 [23]): Active; Activity (HCT-116 [24]): Active
CCc1ccc(-c2c3c(nc4cc5c(cc24)OCO5)-c2cc4c(c(=O)n2C3)COC(=O)[C@]4(O)CC)cc1	Active	Active	Active	Active	Active	Active	Active	Active	Active	Active	47.4 nM	Active	Active	Active	Active	Active	Active	Active	Active	Active	Activity (HCT-116 [20]): Active; Activity (HCT-116 [21]): Active; Activity (HCT-116 [22]): Active; Activity (HCT-116 [23]): Active; Activity (HCT-116 [24]): Active
CC[C@@]1(O)C(=O)OCc2c1cc1n(c2=O)Cc2cc3cc4c(cc3nc2-1)OCO4	Active	Active	Active	Active			Active	Active	Active		32.2 nM	Active	Active	Active	Active	Active	Active	Active	Active	Active	Activity (HCT-116 [20]): Active; Activity (HCT-116 [21]): Active; Activity (HCT-116 [22]): Active; Activity (HCT-116 [23]): Active; Activity (HCT-116 [24]): Active
